According to patent US9101148B2, “Carbohydrate modifying agent and drinks containing the modifying agent” (SBS Food Group LLC, priority 2001, dated 2015):

Test system: mutans streptococci
Experiment: Inhibition of growth and adherence of mutans streptococci in vitro by zinc salts
Format: cell-based
Details: 0.5% zinc solution
Text: In another preferred embodiment of the invention, the formulation includes one or more zinc salt or other source of the zinc ion. Metabolically, zinc is a critical nutrient in the synthesis of insulin and the metabolism of carbohydrates. From a dental perspective, cariogenic bacteria enzymatically produce an insoluble glucan deposit from simple sugars present in the mouth that firmly adheres to the enamel tooth surface.

| Molecule | adherence of mutans streptococci | growth of mutans streptococci |
| --- | --- | --- |
| [Cl-].[Cl-].[Zn+2] [zinc chloride] | inhibited | inhibited |
| zinc ascorbate | inhibited | inhibited |
